Results on three molecules are retold here after patent US20070197591A1, “USE OF PALIPERIDONE FOR THE TREATMENT OF A MENTAL DISORDER IN A PSYCHIATRIC PATIENT WITH REDUCED HEPATIC FUNCTION” (priority 2005, published 2007).

Data set [1] in a line: Plasma protein binding / unbound fraction of paliperidone and its enantiomers. The data set is classed as in vitro ADME, human. The source says: Objectives: The primary objective of this study was to investigate the single-dose pharmacokinetics of immediate-release (IR) paliperidone, after oral administration, in subjects having moderate hepatic impairment (“hepatically-impaired subjects”) compared with subjects having normal hepatic function (“healthy subjects”). The secondary objective was to document the plasma protein binding and disposition of the enantiomers of paliperidone. In addition, the tolerability and safety profile of IR paliperidone was compared between hepatically impaired subjects and healthy subjects. Criteria for Evaluation: Pharmacokinetics: Plasma and urine concentrations of the paliperidone enantiomers (+) R078543 and (−) R078544 were determined using an LC-MS/MS method. Concentrations of paliperidone were calculated as the sum of the enantiomer concentrations. In addition, serum and urine concentrations of creatinine were determined for the calculation of CLCR. The protein binding and unbound fraction was determined for the 2 paliperidone enantiomers. The unbound fraction for paliperidone was calculated.

A short description of the next data set: clinical. Also noted: species or system human. Conditions: human, in vivo. From the text:
Objectives: to investigate the metabolic pathways of paliperidone and excretion of paliperidone and its metabolites in healthy adult male subjects, both CYP2D6 poor and extensive metabolizers, after administration of a single 1-mg oral dose of ^14C-paliperidone. In addition, to evaluate the safety and tolerability of paliperidone, as well as the relationship between genotypes (CYP2D6, CYP3A4, CYP3A5, UGT1A1, and UGT1A6) and exposure to paliperidone and its metabolites.
Methodology: Single-center, single-dose open-label study of the absorption, metabolism, and excretion (AME) of paliperidone in healthy men (3 extensive and 3 poor metabolizers based on CPY2D6 phenotype). […] Each subject received a single oral dose of ^14C-paliperidone with total radioactivity below […] (16 μCi). Blood samples for plasma pharmacokinetic profile were obtained immediately before study drug administration and 0.5, 1, 1.5, 3, 6, 12, 16, 36, 48, 72, 96, 120, 144 and 168 hours postdose. Blood samples were obtained 2, 4, 8, and 24 hours postdose for determination of ^14C in whole blood. Samples for determination of serum creatinine were obtained 2, 4, 8, and 24 hours postdose. Urine was collected immediately prior to drug administration and from 0-4, 4-8, 8-12, 12-16, 16-24, 24-36, 36-48, 48-72, 96-120, 120-144, and 144-168 hours after study drug administration. Fecal samples were colleted per each stool, once before study drug administration and in the period from 0-168 hours after study drug administration. Collections of urine and feces (per 24 hours) were to continue beyond 168 hours, to a maximum of 336 hours (Day 15) for subjects who excrete radioactivity slowly (2 latest 24-hour urine collections each >2% of total radioactive dose) or have <7 feces stool samples over the 0 to 168-hour period. ^14C radioactivity was measured in plasma, urine, and feces. Aliquots of the 0- through 24-hour urine collections were analyzed for cretinine. Plasma concentrations of paliperidone and risperidone were determined by means of a validated LC-MS/MS method. The ^14C-labeled moiety in plasma and urine was determined by liquid scintillation counting. For all plasma samples, the lower limits of quantification for paliperidone and risperidone were 0.100 ng/mL. For all plasma and urine samples the lower limits of quantification for ^14C-palieridone was 72 dpm/mL (=2.0 n g-eq/mL).
Number of Subjects (Planned and Analyzed): Six healthy men, 3 extensive and 3 poor metabolizers based on CYP2D6 phenotype were to participate in the study. Five subjects, 3 extensive and 2 poor metabolizers, received a single dose of ^14C-paliperidone, completed the study (i.e., completed all assessments through Day 8) and were considered valuable for safety (the Safety Analysis Set), as well as for pharmacokinetics.
Test Product, Dose and Mode of Administration Batch No.: Single oral 0.988-mg dose of ^14C-paliperidone, oral solution (aqueous formulation at a final concentration of 0.0984 mg/mL). Batch No.: unlabeled paliperidone oral solution: ZR076477EIA031 (manufacturing date: 23 Apr. 2003, retest date: 23 Oct. 2004): ^14C-paliperidone: 1763 (expiration date: not applicable)
Criteria for Evaluation: Pharmacokinetics: Plasma paliperidone. ^14C radioactivity and metabolite profiles were determined. Plasma Cmax, tmax, AUClast, AUC24, AUC∞, λZ, t1/2term, CL/F of ^14C and paliperidone were estimated by non-compartmental analysis. Based on the individual urine excretion data and on the serum creatinine concentrations, Ae, Ae, % dose, CLR, CLR,24h and CLer and paliperidone and CLGFR, and CLact of paliperidone were estimated. The excretion half-life of ^14C in urine was also estimated based on excretion rate-time profiles.
Statistical Methods: Pharmacokinetics: Plasma concentrations of ^14C and paliperdone as well as estimates for pharmacokinetic parameters were listed and graphically presented, and the excretion analysis of total radioactivity in plasma, urine and feces were summarized. […]

The nature of data set [2]: Safety and tolerability, single oral 1-mg ^14C-paliperidone in healthy men. The data set is classed as in vivo, human. Here is the method: Safety: Evaluation was based on the incidence, type, and severity of all treatment-emergent adverse events, and on change from screening to the end of the study in clinical laboratory results, vital sign measurements, and postural changes in blood pressure and heart rate.
Safety: The number of subjects with adverse events was summarized. Summary statistics were calculated for clinical laboratory values. Other safety data were listed by individual sect. Changes in blood pressure and heart rate measurements were also presented graphically.

The mark [3] stands for this setting: Hepatically-Impaired Subjects (n = 10; paliperidone n = 8).

`Cc1nc2n(c(=O)c1CCN1CCC(c3noc4cc(F)ccc34)CC1)CCCC2O` (single isomer, unassigned; (-)) [(−) R078544]: the “Unbound Fraction” value is reported as 0.385 ± 0.0416 in data set [1] (Healthy Subjects (n = 10)) and 0.457 ± 0.0504 in data set [1] (setting [3]).
Take `Cc1nc2n(c(=O)c1CCN1CCC(c3noc4cc(F)ccc34)CC1)CCC[C@H]2O` [(+) R078543]: the “Unbound Fraction” value in data set [1] (Healthy Subjects (n = 10)) is on record as 0.215 ± 0.0469; in data set [1] (setting [3]) it was 0.306 ± 0.0687.
As to ^14C-paliperidone, the “AUC∞” value in the data set “clinical” was determined as 175 ng-eq.h/mL. Further, the “deaths, serious adverse events” value in data set [2] (5 healthy men, single oral 1-mg dose) is listed as “no deaths, no serious adverse events”. In data set [2] (in vivo, po), the “changes in laboratory test results” value was “no clinically relevant changes”; the “overall safety and tolerability” value is “safe and well tolerated”; the “subjects with treatment-emergent adverse events” value is given as “Two of the 5 subjects”.
